Assay results published in paper PMC9516332 (Frontiers in Oncology, 2022).
Like-named read-outs stand apart in the source and are kept apart here.

Tests used:
[1] = target: panel of 255 wild-type kinases (Homo sapiens, UniProt Q9Y463); assay: Kinase panel profiling at 1 µmol/L (MSA or IMAP), percentage inhibition; format: biochemical; settings: kinase DYRK1B; 1 µmol/L single concentration; read-out: %-inhibition at 1 µmol/L, DYRK1B
[2] = target: panel of 255 wild-type kinases (Homo sapiens, UniProt P31749); assay: as above; format: biochemical; settings: AKT1 kinase assay; 1 µmol/L single concentration; read-out: %-inhibition AKT1
[3] = target: panel of 255 wild-type kinases (Homo sapiens, UniProt P08581); assay: as above; format: biochemical; settings: MET; 1 µmol/L single concentration
[4] = target: T1, panel of 255 wild-type kinases (Homo sapiens, UniProt Q96PF2); assay: as above; format: biochemical; settings: kinase TSSK2; 1 µmol/L single concentration; read-out: %-inhibition at 1 µmol/L, TSSK2
T1 sequence (Q96PF2 1-358): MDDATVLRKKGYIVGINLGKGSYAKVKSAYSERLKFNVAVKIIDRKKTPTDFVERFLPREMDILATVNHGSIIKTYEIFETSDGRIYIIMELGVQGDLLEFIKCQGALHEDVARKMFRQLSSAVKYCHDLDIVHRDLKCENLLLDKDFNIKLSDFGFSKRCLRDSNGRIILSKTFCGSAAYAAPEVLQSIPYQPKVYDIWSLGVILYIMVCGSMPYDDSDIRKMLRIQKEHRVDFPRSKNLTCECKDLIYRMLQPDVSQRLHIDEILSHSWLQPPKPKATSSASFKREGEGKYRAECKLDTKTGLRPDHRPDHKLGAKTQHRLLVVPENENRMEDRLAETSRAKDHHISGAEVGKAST

AP-1060 (ETV6-NTRK3) = assay: Cell viability assay; settings: read-out: IC50 in cell proliferation assay
134 cancer cell lines = assay: Cell viability assay (ATPlite, 72 hours), IC50 on cancer cell line panel

## C=CC(=O)N1CCC([C@@H]2CCNc3c(C(N)=O)c(-c4ccc(Oc5ccccc5)cc4)nn32)CC1 [zanubrutinib]
[1]
  inhibition at 1 µM: 5.39%
[2]
  inhibition at 1 µM: -13%
[3]
  inhibition at 1 µM: -2.35%
[4]
  inhibition at 1 µM: 0.571%
AP-1060 (ETV6-NTRK3)
  IC50: > 31.6 µM
134 cancer cell lines; HEC-6, read-out: IC50 in cell proliferation assay
  IC50: 0.355 µM
134 cancer cell lines; Homo sapiens, 769-P, read-out: IC50 in cell proliferation assay
  IC50: 4.48 µM
134 cancer cell lines; Homo sapiens, 786-0, read-out: IC50 in cell proliferation assay
  IC50: 2.19 µM
134 cancer cell lines; Homo sapiens, A 172, read-out: IC50 in cell proliferation assay
  IC50: > 31.6 µM
134 cancer cell lines; Homo sapiens, A204, read-out: IC50 in cell proliferation assay
  IC50: 27.9 µM
134 cancer cell lines; Homo sapiens, A498, read-out: IC50 in cell proliferation assay
  IC50: 5.51 µM
134 cancer cell lines; Homo sapiens, A549, read-out: IC50 in cell proliferation assay
  IC50: 24.7 µM
134 cancer cell lines; Homo sapiens, A704, read-out: IC50 in cell proliferation assay
  IC50: > 31.6 µM
134 cancer cell lines; Homo sapiens, A-375, read-out: IC50 in cell proliferation assay
  IC50: > 31.6 µM
134 cancer cell lines; Homo sapiens, A-427, read-out: IC50 in cell proliferation assay
  IC50: 8.55 µM
134 cancer cell lines; Homo sapiens, ACHN, read-out: IC50 in cell proliferation assay
  IC50: 2.75 µM
134 cancer cell lines; Homo sapiens, AN3-CA, read-out: IC50 in cell proliferation assay
  IC50: 29.8 µM
134 cancer cell lines; Homo sapiens, ASPC1, read-out: IC50 in cell proliferation assay
  IC50: 7.83 µM
134 cancer cell lines; Homo sapiens, AU565, read-out: IC50 in cell proliferation assay
  IC50: 0.303 µM
134 cancer cell lines; Homo sapiens, BT-20, read-out: IC50 in cell proliferation assay
  IC50: 15.1 µM
134 cancer cell lines; Homo sapiens, BT-474, read-out: IC50 in cell proliferation assay
  IC50: 0.213 µM
134 cancer cell lines; Homo sapiens, BT-549, read-out: IC50 in cell proliferation assay
  IC50: 12 µM
134 cancer cell lines; Homo sapiens, BXPC-3, read-out: IC50 in cell proliferation assay
  IC50: 3.04 µM
134 cancer cell lines; Homo sapiens, C-33-A, read-out: IC50 in cell proliferation assay
  IC50: 1.1 µM
134 cancer cell lines; Homo sapiens, CAL-27, read-out: IC50 in cell proliferation assay
  IC50: 1.37 µM
134 cancer cell lines; Homo sapiens, CCF-STTG1, read-out: IC50 in cell proliferation assay
  IC50: > 31.6 µM
134 cancer cell lines; Homo sapiens, CCRF-CEM, read-out: IC50 in cell proliferation assay
  IC50: 13.2 µM
134 cancer cell lines; Homo sapiens, COLO 205, read-out: IC50 in cell proliferation assay
  IC50: > 31.6 µM
134 cancer cell lines; Homo sapiens, COLO-829, read-out: IC50 in cell proliferation assay
  IC50: > 31.6 µM
134 cancer cell lines; Homo sapiens, DLD-1, read-out: IC50 in cell proliferation assay
  IC50: > 31.6 µM
134 cancer cell lines; Homo sapiens, DU-145, read-out: IC50 in cell proliferation assay
  IC50: 1.05 µM
134 cancer cell lines; Homo sapiens, DU-4475, read-out: IC50 in cell proliferation assay
  IC50: 18.1 µM
134 cancer cell lines; Homo sapiens, Daoy, read-out: IC50 in cell proliferation assay
  IC50: 23.4 µM
134 cancer cell lines; Homo sapiens, DoTc2-4510, read-out: IC50 in cell proliferation assay
  IC50: 1.5 µM
134 cancer cell lines; Homo sapiens, EOL1, read-out: IC50 in cell proliferation assay
  IC50: 2.74 µM
134 cancer cell lines; Homo sapiens, FaDu, read-out: IC50 in cell proliferation assay
  IC50: 0.751 µM
134 cancer cell lines; Homo sapiens, G-361, read-out: IC50 in cell proliferation assay
  IC50: 31.4 µM
134 cancer cell lines; Homo sapiens, HCC827, read-out: IC50 in cell proliferation assay
  IC50: 1.33 µM
134 cancer cell lines; Homo sapiens, HCC4006, read-out: IC50 in cell proliferation assay
  IC50: 1.36 µM
134 cancer cell lines; Homo sapiens, HCT-15, read-out: IC50 in cell proliferation assay
  IC50: 15.7 µM
134 cancer cell lines; Homo sapiens, HCT-116, read-out: IC50 in cell proliferation assay
  IC50: > 31.6 µM
134 cancer cell lines; Homo sapiens, HEC-1, read-out: IC50 in cell proliferation assay
  IC50: > 31.6 µM
134 cancer cell lines; Homo sapiens, HEC-1B, read-out: IC50 in cell proliferation assay
  IC50: 5.59 µM
134 cancer cell lines; Homo sapiens, HL-60, read-out: IC50 in cell proliferation assay
  IC50: > 31.6 µM
134 cancer cell lines; Homo sapiens, HT, read-out: IC50 in cell proliferation assay
  IC50: > 31.6 µM
134 cancer cell lines; Homo sapiens, HT-1080, read-out: IC50 in cell proliferation assay
  IC50: > 31.6 µM
134 cancer cell lines; Homo sapiens, Hs746T, read-out: IC50 in cell proliferation assay
  IC50: > 31.6 µM
134 cancer cell lines; Homo sapiens, Hs-578T, read-out: IC50 in cell proliferation assay
  IC50: 28.4 µM
134 cancer cell lines; Homo sapiens, HuTu80, read-out: IC50 in cell proliferation assay
  IC50: 0.961 µM
134 cancer cell lines; Homo sapiens, J82, read-out: IC50 in cell proliferation assay
  IC50: > 31.6 µM
134 cancer cell lines; Homo sapiens, Jurkat E6.1, read-out: IC50 in cell proliferation assay
  IC50: 19.1 µM
134 cancer cell lines; Homo sapiens, K562, read-out: IC50 in cell proliferation assay
  IC50: > 31.6 µM
134 cancer cell lines; Homo sapiens, KATO III, read-out: IC50 in cell proliferation assay
  IC50: 5.47 µM
134 cancer cell lines; Homo sapiens, KG-1, read-out: IC50 in cell proliferation assay
  IC50: 2.85 µM
134 cancer cell lines; Homo sapiens, KLE, read-out: IC50 in cell proliferation assay
  IC50: 2.73 µM
134 cancer cell lines; Homo sapiens, KMS-11, read-out: IC50 in cell proliferation assay
  IC50: 22.6 µM
134 cancer cell lines; Homo sapiens, KU812, read-out: IC50 in cell proliferation assay
  IC50: 12.3 µM
134 cancer cell lines; Homo sapiens, Kasumi 1, read-out: IC50 in cell proliferation assay
  IC50: 3.36 µM
134 cancer cell lines; Homo sapiens, LC-2-ad, read-out: IC50 in cell proliferation assay
  IC50: 16.5 µM
